Experimental data as given in US10383950B2, “Methods and compositions of carrier systems for the purpose of intracellular drug targeting” (HELMHOLTZ-ZENTRUM FÜR INFEKTIONSFORSCHUNG GMBH, priority 2014, dated 2019).

Experiments:
[1] = In vitro release of gentamicin (dialysis membrane setup); settings: 37° C., PBS pH 7.4, 10.000 MWCO cellulose membrane
[2] = cited from earlier work

Question: With gentamicin as the substance, how does the “time at which gentamicin became detectable in the bulk release medium” value [1] read?
Answer: Its value is at most 1 min.

Question: And the “time to complete release / permeation of gentamicin” value [1]?
Answer: Its value is 1.5 h.

Question: What about the pKa [2] of the same substance?
Answer: The pKa was 8.2.
